The record followed here is patent publication US20260049105A1, “SELECTIVE MC4R LIGAND FOR TREATING OBESITY AND COGNITIVE LOSS” (ARIZONA BOARD OF REGENTS ON BEHALF OF THE UNIVERSITY OF …, priority 2022, published 2026).

The target of test [1] is T1, hMC4R (Homo sapiens, UniProt P32245).
T1 construct: expressed in transfected cells; host or cells: HEK293
Nature of the test: Competitive receptor binding assay, whole HEK293 cells, 125I-NDP-α-MSH. The conditions noted are these: 40 min; hM4CR; percentage of [125I]NDP-α-MSH displacement at 10 μM; read-out: BE%. Here is the method:
(§1) Competition binding experiments were performed on whole cells. The transfected HEK293 cell line with hMC4Rs were seeded on 96 well plates, 48 hours before the assay, 100,000 cells/well. For the assay, the medium was removed and cells were washed twice with a freshly prepared binding buffer containing 100% minimum essential medium with Earle's salt (MEM, GIBCO), 25 mM HEPES (pH 7.4), 0.2% bovine serum albumin, 1 mM 1,10-phenanthroline, 0.5 mg/L leupeptin, and 200 mg/L bacitracin. […] The medium was subsequently removed and each well was washed twice with the assay buffer. The cells are lysed by the addition of 250 μL of 0.1 NaOH and 250 μL of 1% Triton X-100. […] Data were analyzed using Graphpad Prism 6.0 (Graphpad Software, San Diego, CA).
IC50 and EC50 values represent the mean of duplicate experiments performed in triplicate. IC50 and EC50 estimates and their associated standard errors were determined by fitting the data using nonlinear least-squares analysis, with the help of Graphpad Prism 6.0 (Graphpad Software, San Diego, CA). […]

For test [2], the target named is T1, hMC4R. Nature of the test: Adenylate cyclase (cAMP) assay in transfected HEK293 cells. In kind it is cell-based. The note with it: HEK293, 0.05 h; hM4CR; percentage of cAMP produced at 10 μM in relation to MT-II; read-out: Act%. Here is the method: The cells were seeded on 96 well plates 48 hours before the assay, (100,000 cells/well). For the assay, the medium was removed and cells were rinsed with 1 mL of MEM buffer (GIBCO) or with Earle's balanced salt solution (EBSS, GIBCO). An aliquot (0.4 mL) of Earle's balanced salt solution was placed in each well along with isobutylmethylxanthine (IBMX; 5 μL; 0.5 mM) for 1 minute at 37° C. Varying concentrations of melanotropins (0.1 mL) were added and the cells incubated for 3 minutes at 37° C. The reaction was stopped by aspirating the buffer and adding ice-cold Tris/EDTA buffer to each well (0.15 mL). The 96 well plates were covered and placed on ice. After dislodging the cells, the plates were placed in a boiling water bath for 15 minutes. The cell lysate was then centrifuged for 10 minutes (4000 rpm), and 50 μL of the supernatant was aliquoted into perkinElmer glass fiber filter plate. cAMP content was measured by competitive binding assay in addition to 50 μL H^3 cAMP and 100 μL PKA. Then the system was placed on ice for 2 hours and then vacuum and filtered. 100 μL of the OptiPhase Supermix scintillation fluid was added to the plate. The plates stayed for 8 hours and then read by MicroBeta radiation plate reader. IC50 and EC50 values represent the mean of duplicate experiments performed in triplicate. […] NA indicates 0% cAMP accumulation observed at 10 μM. The peptides were tested over a range of concentrations from 10^-10 to 10^-5 M.

In test [3] the target is T2, hMC1R (Homo sapiens, UniProt Q01726).
T2 construct: expressed in transfected cells; host or cells: HEK293
Nature of the test: Competitive receptor binding assay, whole HEK293 cells, 125I-NDP-α-MSH. The conditions noted are these: for inhibition at 10 µM: 40 min, hM1CR, percentage of NDP-α-MSH displacement at 10 μM, read-out: BE %; for hMC1R binding affinity (in words): compared with the other analogues. The procedure:
[The procedure below names another target; the source lists this target under the same test.] (§2) Competition binding experiments were performed on whole cells. The transfected HEK293 cell line with hMC4Rs were seeded on 96 well plates, 48 hours before the assay, 100,000 cells/well. For the assay, the medium was removed and cells were washed twice with a freshly prepared binding buffer containing 100% minimum essential medium with Earle's salt (MEM, GIBCO), 25 mM HEPES (pH 7.4), 0.2% bovine serum albumin, 1 mM 1,10-phenanthroline, 0.5 mg/L leupeptin, and 200 mg/L bacitracin. […] The medium was subsequently removed and each well was washed twice with the assay buffer. The cells are lysed by the addition of 250 μL of 0.1 NaOH and 250 μL of 1% Triton X-100. The lysed cell was transferred to the 12×75 mm glass tubes and the radioactivity was measured by Wallac 1470 WIZARD Gamma Counter. Data were analyzed using Graphpad Prism 6.0 (Graphpad Software, San Diego, CA).
(§3) IC50 and EC50 values represent the mean of duplicate experiments performed in triplicate. IC50 and EC50 estimates and their associated standard errors were determined by fitting the data using nonlinear least-squares analysis, with the help of Graphpad Prism 6.0 (Graphpad Software, San Diego, CA).
(§4) NA indicates 0% cAMP accumulation observed at 10 μM. The peptides were tested over a range of concentrations from 10^-10 to 10^-5 M.

In test [4] the target is T3, hMC3R (Homo sapiens, UniProt P41968).
T3 construct: expressed in transfected cells; host or cells: HEK293
The test is described as above. The conditions noted are these: 40 min; hM3CR; percentage of NDP-α-MSH displacement at 10 μM; read-out: BE %. Here is the method: [The procedure below names another target; the source lists this target under the same test.] as §2, §3, §4

The target of test [5] is T4, hMC5R (Homo sapiens, UniProt P33032).
T4 construct: expressed in transfected cells; host or cells: HEK293
The test is described as above. The note with it: 40 min; hM5CR; percentage of NDP-α-MSH displacement at 10 μM; read-out: BE %. Here is the method: [The procedure below names another target; the source lists this target under the same test.] as §1, §3, §4

Test [6] deals with T2, hMC1R. Nature of the test: Adenylate cyclase (cAMP) assay in transfected HEK293 cells. It is filed as cell-based. The note with it: HEK293, 0.05 h; hM1CR; cAMP at 10 μM in relation to MT-II; read-out: Act %. Here is the method: (§5) HEK293 cells transfected with human melanocortin receptors were grown to confluence in MEM medium (GIBCO) containing 10% fetal bovine serum, 100 units/mL penicillin and streptomycin, and 1 mM sodium pyruvate. The cells were seeded on 96 well plates 48 hours before the assay, (100,000 cells/well). For the assay, the medium was removed and cells were rinsed with 1 mL of MEM buffer (GIBCO) or with Earle's balanced salt solution (EBSS, GIBCO). An aliquot (0.4 mL) of Earle's balanced salt solution was placed in each well along with isobutylmethylxanthine (IBMX; 5 μL; 0.5 mM) for 1 minute at 37° C. Varying concentrations of melanotropins (0.1 mL) were added and the cells incubated for 3 minutes at 37° C. The reaction was stopped by aspirating the buffer and adding ice-cold Tris/EDTA buffer to each well (0.15 mL). The 96 well plates were covered and placed on ice. After dislodging the cells, the plates were placed in a boiling water bath for 15 minutes. The cell lysate was then centrifuged for 10 minutes (4000 rpm), and 50 μL of the supernatant was aliquoted into perkinElmer glass fiber filter plate. cAMP content was measured by competitive binding assay in addition to 50 μL H^3 cAMP and 100 μL PKA. Then the system was placed on ice for 2 hours and then vacuum and filtered. 100 μL of the OptiPhase Supermix scintillation fluid was added to the plate. The plates stayed for 8 hours and then read by MicroBeta radiation plate reader.
as §3, §4

The target of test [7] is T3, hMC3R. The description is as above. In kind it is cell-based. The note with it: HEK293, 0.05 h; hM3CR; cAMP at 10 μM in relation to MT-II; read-out: Act %. The procedure: as §5, §3, §4
Test [8] concerns the target T4, hMC5R. The description is as above. It is filed as cell-based. The conditions noted are these: HEK293, 0.05 h; hM5CR; cAMP at 10 μM in relation to MT-II; read-out: Act %. The procedure: as §5, §3, §4
In test [9] the target is T1, hMC4R. In words: Plasmon waveguide resonance (PWR) spectrum of hMC4R membranes with agonists.
Excerpt: PWR uses polarized light generated from a CW He—Ne laser (λ=632.8 nm or λ=543.5 nm), which passes through a glass prism under total internal reflection conditions. A thin metal film (Ag), which is deposited on the external surface of the prism, is overcoated with another thin layer of SiO2 as dielectric media. When there is an object attached to the dielectric layer of SiO2, and polarized laser forms a specific incident angle with the outer surface layer, the resonant excitation of collective electronic oscillations (plasmons) happens and generates an evanescent electromagnetic field localized at the dielectric film, which gives the absorption spectrum at that specific angle. This can be used to probe the optical properties of molecules immobilized on the outer surface of the prism. Resonance is achieved either by varying the laser light wavelength at a fixed angle or by varying the angle at a fixed laser wavelength(we used the latter one in this research). Any changes of the immobilized yield distinct incident angle that evanescence happens in the dielectric layer. Due to the ability that laser light can be polarized to either parallel (p) or perpendicular (s) to the incident plane, characterization of the molecular organization of anisotropic systems can be fulfilled, such as biomembranes containing integral proteins. Under the experimental conditions described herein, the optical parameters obtained with the p-polarization refer to the perpendicular direction, and those obtained with s-polarization refer to the parallel direction, relative to the bilayer membrane surface.
Resonance spectra in this study were obtained using a PWR instrument from Biopeptek Pharmaceuticals LLC. […] Recombinant HEK293 cells expressing the hMC4R were grown to confluency. The confluent cell monolayers were then washed with Ca^2+ and Mg^2+-deficient phosphate-buffered saline and were harvested in the same buffer containing 0.02% ethylenediaminetetraacetic acid (EDTA). After centrifugation at 1500 g for 10 minutes, the cells were homogenized in an ice-cold 10 mM Tris-HCl buffer and 1 mM EDTA (pH 7.4). A crude membrane fraction was collected by centrifugation at 40,000 g for 20 minutes at −4° C. and was stored at −80° C. until use. Before the PWR experiment, the membrane fraction was resuspended in a 20 mM Tris-HCl buffer (pH 7.4) by mild homogenization. Protein concentration was determined by using a Bradford assay.
Under the experimental conditions employed herein, the oscillation of light with p-polarization reflects the dimension of objects perpendicular to the membrane, and those obtained under the s-polarization vector refer to the dimension in parallel with the bilayer membrane surface.

T1 sequence (P32245 whole entry): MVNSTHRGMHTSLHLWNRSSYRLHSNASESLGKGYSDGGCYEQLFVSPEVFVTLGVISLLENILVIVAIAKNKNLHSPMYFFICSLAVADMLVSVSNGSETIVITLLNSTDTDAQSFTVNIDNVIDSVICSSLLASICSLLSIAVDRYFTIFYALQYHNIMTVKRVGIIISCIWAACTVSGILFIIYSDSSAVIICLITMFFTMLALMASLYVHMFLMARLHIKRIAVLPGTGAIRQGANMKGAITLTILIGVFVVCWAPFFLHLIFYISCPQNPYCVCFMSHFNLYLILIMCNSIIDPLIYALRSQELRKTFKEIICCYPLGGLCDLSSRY
T4 sequence (P33032 whole entry): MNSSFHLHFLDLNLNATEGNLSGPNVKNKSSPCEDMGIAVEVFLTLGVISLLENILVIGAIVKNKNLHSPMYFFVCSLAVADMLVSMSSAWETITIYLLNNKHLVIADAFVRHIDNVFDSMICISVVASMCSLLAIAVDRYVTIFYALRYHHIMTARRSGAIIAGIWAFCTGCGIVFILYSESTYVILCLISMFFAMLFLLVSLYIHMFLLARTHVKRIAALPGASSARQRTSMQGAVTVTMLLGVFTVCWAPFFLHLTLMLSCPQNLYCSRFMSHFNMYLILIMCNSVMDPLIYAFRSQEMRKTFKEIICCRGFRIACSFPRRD
T2 sequence (Q01726 whole entry): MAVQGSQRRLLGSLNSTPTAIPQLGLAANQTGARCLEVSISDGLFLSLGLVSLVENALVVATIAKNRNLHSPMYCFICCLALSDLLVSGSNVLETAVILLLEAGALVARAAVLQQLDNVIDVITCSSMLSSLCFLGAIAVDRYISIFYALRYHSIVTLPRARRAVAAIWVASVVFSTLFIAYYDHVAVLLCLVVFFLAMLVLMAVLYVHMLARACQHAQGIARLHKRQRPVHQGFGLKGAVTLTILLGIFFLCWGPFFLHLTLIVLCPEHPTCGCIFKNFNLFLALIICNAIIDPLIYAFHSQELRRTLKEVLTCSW
T3 sequence (P41968 whole entry): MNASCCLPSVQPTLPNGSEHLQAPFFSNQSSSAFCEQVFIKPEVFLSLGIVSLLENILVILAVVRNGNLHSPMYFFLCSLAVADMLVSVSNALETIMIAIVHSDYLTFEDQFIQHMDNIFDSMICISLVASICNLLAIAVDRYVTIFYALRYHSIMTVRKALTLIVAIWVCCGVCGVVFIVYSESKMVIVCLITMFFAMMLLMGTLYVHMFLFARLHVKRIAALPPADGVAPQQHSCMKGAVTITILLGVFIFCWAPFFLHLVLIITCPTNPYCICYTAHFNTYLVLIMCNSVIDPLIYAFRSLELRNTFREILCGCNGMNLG

As for `CC(=O)N[C@@H](CCCNC(=N)N)C(=O)N[C@H]1CC(=O)NCCCC[C@@H](C(N)=O)NC(=O)C[C@H](Cc2c[nH]c3ccccc23)NC(=O)C[C@H](CCCNC(=N)N)NC(=O)[C@@H](Cc2ccccc2)NC(=O)[C@@H]2CCCCN2C1=O` [compound 3, Ac-Arg-cyclo[Asp-Pip-D-Phe-βArg-BTrp-Lys]-NH2], the inhibition at 10 µM on hMC4R [1] is 100%; on hMC1R [3], 30%; at hMC3R [4] it was 100%; on hMC5R [5], 46%. The Emax at 10 µM on hMC4R [2] was 84%; at hMC1R [6], 82%; at hMC3R [7], 87%; on hMC5R [8] it was 82%. Besides, the “hMC1R binding affinity (in words)” value at hMC1R [3] is “lower binding affinities than the others”.
Take `CC(=O)N[C@@H](CCCNC(=N)N)C(=O)N[C@H]1CC(=O)NCCCC[C@@H](C(N)=O)NC(=O)[C@H](Cc2c[nH]c3ccccc23)NC(=O)C[C@H](CCCNC(=N)N)NC(=O)[C@@H](Cc2ccc(Cl)cc2)NC(=O)[C@@H]2CCCCN2C1=O` [compound 8, Ac-Arg-cyclo[Asp-Pip-D-Phe(4-Cl)-βArg-Trp-Lys]-NH2]: the inhibition at 10 µM was found to be 100% at hMC4R [1], 100% at hMC1R [3], 100% on hMC3R [4] and 0% on hMC5R [5]. The Emax at 10 µM on hMC4R [2] was determined as 66%; on hMC1R [6] it was 89%; at hMC3R [7], 46%; at hMC5R [8] it was 38%.
In the case of `CC(=O)N[C@@H](CCCNC(=N)N)C(=O)N[C@H]1CC(=O)NCCCC[C@@H](C(N)=O)NC(=O)[C@H](Cc2c[nH]c3ccccc23)NC(=O)C[C@H](CCCNC(=N)N)NC(=O)[C@@H](Cc2ccccc2)NC(=O)[C@@H]2CCCCN2C1=O` [compound 2, Ac-Arg-cyclo[Asp-Pip-D-Phe-βArg-Trp-Lys]-NH2], the inhibition at 10 µM worked out at 100% on hMC4R [1], 100% at hMC1R [3], 24% at hMC3R [4] and 0% at hMC5R [5]. In addition, the Emax at 10 µM at hMC4R [2] amounted to 67%; on hMC1R [6] it was 120%; on hMC3R [7], 89%; on hMC5R [8], 90%.
For `CC(=O)N[C@@H](CCCNC(=N)N)C(=O)N[C@H]1CSSC[C@@H](C(N)=O)NC(=O)[C@H](Cc2c[nH]c3ccccc23)NC(=O)[C@H](CCCNC(=N)N)NC(=O)[C@@H](Cc2ccccc2)NC(=O)[C@H](Cc2c[nH]cn2)NC(=O)[C@@H](C)NC1=O` [RM493, reference compound], the “PWR left shift under p-polarization relative to hMC4R sole” value at hMC4R [9] (p-polarization, left shifted) turned out to be 0.25 degrees. Besides, the “PWR absorbance location under s-polarization” value at hMC4R [9] (s-polarization, sole MC4R 33.29) amounted to 32.97.
Take `CC(=O)N[C@@H](CCCNC(=N)N)C(=O)N[C@H]1CC(=O)NCCCC[C@@H](C(N)=O)NC(=O)C[C@H](Cc2c[nH]c3ccccc23)NC(=O)C[C@H](CCCNC(=N)N)NC(=O)[C@@H](Cc2ccc(F)cc2)NC(=O)[C@@H]2CCCCN2C1=O` [compound 6, Ac-Arg-cyclo[Asp-Pip-D-Phe(4-F)-βArg-BTrp-Lys]-NH2]: the inhibition at 10 µM on hMC4R [1] was found to be 59%; on hMC1R [3], 0%; at hMC3R [4], 39%; at hMC5R [5], 90%. Besides, the Emax at 10 µM on hMC4R [2] turned out to be 120%; on hMC1R [6], 61%; on hMC3R [7], 49%; on hMC5R [8], 51%. Further, at hMC1R [3], the “hMC1R binding affinity (in words)” value was “lower binding affinities than the others”.
Turning to `CC(=O)N[C@@H](CCCNC(=N)N)C(=O)N[C@H]1CC(=O)NCCCC[C@@H](C(N)=O)NC(=O)C[C@H](Cc2c[nH]c3ccccc23)NC(=O)[C@H](CCCNC(=N)N)NC(=O)[C@@H](Cc2ccc(F)cc2)NC(=O)[C@@H]2CCCCN2C1=O` [compound 4, Ac-Arg-cyclo[Asp-Pip-D-Phe(4-F)-Arg-BTrp-Lys]-NH2], the inhibition at 10 µM on hMC4R [1] came to 9%; on hMC1R [3], 100%; at hMC3R [4], 100%; on hMC5R [5], 100%. For the same molecule, the Emax at 10 µM is 46% on hMC4R [2], 90% at hMC1R [6], 76% on hMC3R [7] and 72% at hMC5R [8].
Take `CC(=O)N[C@@H](CCCNC(=N)N)C(=O)N[C@H]1CC(=O)NCCCC[C@@H](C(N)=O)NC(=O)C[C@H](Cc2c[nH]c3ccccc23)NC(=O)[C@H](CCCNC(=N)N)NC(=O)[C@@H](Cc2ccc(Cl)cc2)NC(=O)[C@@H]2CCCCN2C1=O` [compound 7, Ac-Arg-cyclo[Asp-Pip-D-Phe(4-Cl)-Arg-BTrp-Lys]-NH2]: the inhibition at 10 µM on hMC4R [1] was 100%; on hMC1R [3], 100%; on hMC3R [4], 70%; on hMC5R [5], 0%. The Emax at 10 µM came out at 57% on hMC4R [2], 67% at hMC1R [6], 24% on hMC3R [7] and 21% at hMC5R [8].
